Laboratory results from patent US8299083B2, “PDE5 inhibitor compositions and methods for treating cardiac indications” (The Johns Hopkins University, priority 2004, dated 2012).
Where two headings read alike, the source gives them in different places.

Key:
[1] = tested on: healthy human volunteers, dobutamine-stimulated cardiac function; assay: Dobutamine stress test before and after oral study drug, randomized double-blind placebo-controlled; type: in vivo
From the text: Forty healthy volunteers were recruited from the general population in response to advertisements posted in the surrounding community. Subjects were screened by medical history, physical examination, and transthoracic echocardiogram. Individuals with heart disease, atherosclerosis, hypertension, diabetes mellitus, pulmonary hypertension, renal or hepatic disease, smoking, pregnancy, or under treatment with nitrates, adrenergic-blocking drugs, or medicines known to interfere with sildenafil pharmacokinetics were excluded. […] All subjects were instructed to fast for >6 hours prior to study. […] Intravenous dobutamine (5 μg/kg/min) was then administered for 5 minutes to achieve a stable response, and measurements repeated (D1). Dobutamine was discontinued, and 15 minutes provided to return to the baseline state. […] Data were again recorded for a second baseline (B2), and during a second dobutamine infusion (D2) using the identical protocol as for the first test. Systolic function was determined by cardiac-specific indexes that combined measurements of pressure, dimension, and flow. Arterial pressure was determined by an oscillometric arm cuff ([…] 2-dimensional echo-Doppler measurements by an Agilent Sonos 5500 (Philips, The Netherlands) employing a 3 MHz probe. All echo-Doppler measurements were digitally acquired to optical disc and analyzed offline by a single blinded investigator. Each measurement reflected the average of at least 3 separate beats. Aortic flow was equal to the velocity time-integral from pulse-wave Doppler in the left ventricular outflow tract multiplied by cross sectional […].^83 Stroke volume, peak, and mean flow were determined from this waveform. Cardiac output was the product of heart rate and stroke volume. Systemic vascular resistance was the ratio of mean arterial pressure (1⁄3 pulse pressure+diastolic blood pressure) to cardiac output. Cardiac contractility was assessed by several load-independent indexes. […] Load-independent secondary outcome contractility parameters were mean ventricular power index and the end-systolic pressure/volume ratio, an approximation for ventricular end systolic elastance. Other secondary outcome variables included routine measures of cardiac systolic and diastolic function. Ejection fraction was determined from cardiac end-diastolic and systolic volumes determined by Simpson's method using apical 4- and 2-chamber views. End-diastolic volume was equal to stroke volume (from Doppler) divided by ejection fraction, with end-systolic volume equal to the difference of the former and latter. Pulse-wave Doppler spectra of transmittal inflow and tissue Doppler imaging of the lateral mitral annular (E') velocities were used to assess diastolic function.^89 The ratio of E/E' was determined as a surrogate marker of left ventricular filling pressures as previously validated^90. Isovolumic relaxation time was measured by continuous wave Doppler as the time between aortic flow cessation and onset of mitral inflow. All statistical analysis was performed using Systat® software. Results are expressed as mean±standard deviation. […] The primary test was a test between group analysis of whether sildenafil (versus placebo) altered the disparity between the first and second dobutamine response, and determined by a three-way interaction term that included each grouping factor. […] Within group analysis was also performed using a 2-tailed Student's paired t-test to assess individual dobutamine responses ([…]2), and a 2-way ANOVA to test whether study drug altered this response within in each group. Categorical variables were compared using the Chi-squared test.

[2] = tested on: C57BL/6 mice, pressure overload by transverse aortic constriction; assay: Serial echocardiography in conscious mice with transverse aortic constriction (TAC); type: in vivo, mouse; settings: for EF (ejection fraction) / HR (heart rate) / LV Dim (dia) / LV Dim (sys) / LV Mass (estimated, truncated ellipsoid model) / Wall Thickness: sildenafil treated
[3] = tested on: neonatal rat cardiac myocytes; assay: Phenylephrine-induced hypertrophy of neonatal rat cardiomyocytes (sarcomere organization, 3H-leucine incorporation); type: cell-based; settings: phenylephrine 1 μM, sildenafil 100 nM or 1 μM
cGMP = cGMP FRET imaging in neonatal rat myocytes; type: cell-based
Description: Ventricular myocytes from 1-2 days old Sprague Dawley rats (CharlesRiver Lab, MA) were prepared and transfected with the vector carrying the cGMP sensor cygnet-2.1^77 in which EYFP was substituted with the less pH sensitive variant citrine^89, and imaged eighteen-twenty-four hours after transfection as described^90. Images (50-80 ms exposure) were acquired every 10 seconds using custom software and processed by Imagej (NIH, MD). FRET was the change in 480 nm/545 nm emission intensities (ΔR) upon 430 nm excitation^91 expressed as percent change over the basal intensity (R0). Cells were bathed in HEPES buffered Ringer's modified saline (1 mmol/L CaCl2), at room temperature (20-22° C.).

NOS3 = NOS3 dimer/monomer Western blot in TAC hearts; type: in vivo, mouse; settings: 3 weeks TAC
[4] = dobutamine-induced change after sildenafil
[5] = resting baseline after vs before 100 mg oral sildenafil
[6] = second versus initial dobutamine response

SMILES: CCCc1nn(C)c2c(=O)[nH]c(-c3cc(S(=O)(=O)N4CCN(C)CC4)ccc3OCC)nc12 [sildenafil]
- dobutamine-induced change in ventricular end-systolic elastance ([1]; after sildenafil 100 mg oral): 0.84±0.9 mmHg/ml
- dobutamine-induced increase in ejection fraction (absolute change) ([1]; after sildenafil 100 mg oral): 4±5%
- dobutamine-induced increase in heart rate ([1]; after sildenafil 100 mg oral): +14.5±4.7 bpm
- dobutamine-mediated drop in peripheral resistance ([1]; after sildenafil 100 mg oral): not modified
- diastolic changes induced by dobutamine ([1]; compared to placebo): did not significantly alter diastolic changes induced by dobutamine
- A velocity, D2 − B2 [1, 4]: 11 ± 7 cm/s
- E velocity, D2 − B2 [1, 4]: 12 ± 11 cm/s
- E′ velocity, D2 − B2 [1, 4]: 1.5 ± 2.4 cm/s
- IVRT, D2 − B2 [1, 4]: −20 ± 13
- A velocity, Δ(B2 − B1) [1, 5]: -3 ± 8 cm/s
- Diastolic Blood Pressure, Δ(B2 − B1) [1, 5]: −6 ± 5 mmHg
- E velocity, Δ(B2 − B1) [1, 5]: -4 ± 12 cm/s
- Ejection Fraction, Δ(B2 − B1) [1, 5]: +6 ± 2
- End Systolic Elastance, Δ(B2 − B1) [1, 5]: +0.4 ± 0.2 mmHg/mL
- E′ velocity, Δ(B2 − B1) [1, 5]: +0 ± 3 cm/sec
- Heart Rate, Δ(B2 − B1) [1, 5]: +0 ± 3 min^−1
- IVRT, Δ(B2 − B1) [1, 5]: +8 ± 12 msec
- Stroke Volume, Δ(B2 − B1) [1, 5]: +5 ± 6 mL
- Systolic Blood Pressure, Δ(B2 − B1) [1, 5]: −6 ± 3 mmHg
- Total Peripheral Resistance, Δ(B2 − B1) [1, 5]: −170 ± 60 dyne * s/cm^5
- reduction of dobutamine-induced ejection fraction change [1, 6]: 66±64%
- reduction of dobutamine-induced end-systolic elastance change [1, 6]: 56±63%
- reduction of dobutamine-induced peak power change [1, 6]: 32±34%
- adverse events ([1]; single 100 mg oral dose, healthy volunteers): no adverse events
- serial echocardiography, established hypertrophy ([2]; 1-week TAC, then 2 weeks treatment): gradual decline in LV mass and wall thickness, with preservation of systolic ejection
- EF (ejection fraction) ([2]; Control (sham)): 96.5 ± 0.2%
- HR (heart rate) ([2]; Control (sham)): 634 ± 9 min⁻¹
- LV Dim (dia) ([2]; Control (sham)): 2.87 ± 0.09 mm
- LV Dim (sys) ([2]; Control (sham)): 0.89 ± 0.05 mm
- LV Mass (estimated, truncated ellipsoid model) ([2]; Control (sham)): 59.1 ± 5.6 mg
- Wall Thickness ([2]; Control (sham)): 0.71 ± 0.02 mm
- EF (ejection fraction) ([2]; TAC-3 wks): 93.4 ± 1.1 %
- HR (heart rate) ([2]; TAC-3 wks): 595 ± 7 min⁻¹
- LV Dim (dia) ([2]; TAC-3 wks): 3.09 ± 0.06 mm
- LV Dim (sys) ([2]; TAC-3 wks): 1.17 ± 0.08 mm
- LV Mass (estimated, truncated ellipsoid model) ([2]; TAC-3 wks): 82.2 ± 5.0 mg
- Wall Thickness ([2]; TAC-3 wks): 0.82 ± 0.02 mm
- EF (ejection fraction) ([2]; TAC-6 wks): 74.9 ± 7.1 %
- HR (heart rate) ([2]; TAC-6 wks): 617 ± 18 min⁻¹
- LV Dim (dia) ([2]; TAC-6 wks): 3.67 ± 0.24 mm
- LV Dim (sys) ([2]; TAC-6 wks): 2.24 ± 0.37 mm
- LV Mass (estimated, truncated ellipsoid model) ([2]; TAC-6 wks): 115.6 ± 14.2 mg
- Wall Thickness ([2]; TAC-6 wks): 0.86 ± 0.03 mm
- EF (ejection fraction) ([2]; TAC-9 wks): 71.7 ± 9.9 %
- HR (heart rate) ([2]; TAC-9 wks): 608 ± 25 min⁻¹
- LV Dim (dia) ([2]; TAC-9 wks): 4.14 ± 0.36 mm
- LV Dim (sys) ([2]; TAC-9 wks): 2.54 ± 0.57 mm
- LV Mass (estimated, truncated ellipsoid model) ([2]; TAC-9 wks): 142.5 ± 21.5 mg
- Wall Thickness ([2]; TAC-9 wks): 0.86 ± 0.03 mm
- PE-induced cellular hypertrophy (sarcomere organization, protein synthesis) [3]: suppressed
- cGMP FRET signal (cGMP): enhanced the FRET signal
- cGMP FRET signal (cGMP; listed as SIL): raised cellular cGMP
- NOS3 dimer (280 kD) level (NOS3): prevented the loss of NOS dimer
